Assay results from patent US20250049930A1, “PROTAC MOLECULES TARGETING FOXP3 AND USES THEREOF” (CEDARS-SINAI MEDICAL CENTER, priority 2022, published 2025).
Residues, ends and D or L forms follow the SMILES beside them. *: point of attachment. X1 = O=C1CCC(N2C(=O)c3cccc(*)c3C2=O)C(=O)N1; PEG4 = NCCOCCOCCOCCOCCC(=O)O

Assays:
RENCA tumors = assay: Subcutaneous RENCA tumor growth in mice; type: in vivo; settings: s.c. RENCA in Balb/C mice, i.p. treatment from day 10, vs saline
Procedure: Mice: Balb/C mice, 5-8 weeks old, were purchased from Jackson laboratory (Ellsworth, Maine) and housed under pathogen free conditions. All experiments involving animals followed federal and state standards, which include the federal Animal Welfare Act and the NIH guide for the care and use of laboratory animals. The RENCA tumors were generated by subcutaneously injecting 2×10^5 tumor cells into the frank. The day tumor cells were injected was considered day 0. PF (0.1 mmol), PC (0.1 mmol) or P60 (100 ug) was administered i.p. twice a week starting on day 10; αPD1 (200 μg) was administered i.p. twice a week starting on day 5; temsirolimus (15 μg) was administered i.p. every other day, starting on day 10. All drugs were administered throughout the experimental course unless indicated. CD8 cells were depleted with a one-time αCD8 (200 μg) i.p. administration on day 2.
In cancer, Tregs can suppress the antitumor immune response, which is primarily mediated by CD8+ lymphocytes. Therefore, PF was administered to mice to enhance antitumor immunity and suppress growth of syngeneic mouse kidney cancer, which is considered an immunoresponsive cancer type. Mice tumors were established by injecting RENCA cells subcutaneously in the flank of Balb/C mice (5-7 mice per group). RENCA cells were injected subcutaneously to establish palpable tumors, and 10 days later mice were treated i.p., twice a week throughout the experiment, with PF, PC, P60 or Saline (FIG. 3D). Pomalidomide conjugated to (PEG)4 (PROTAC-control; PC) and P60 served as controls. […] In summary, PF decreased the immunosuppressive function of Tregs in vitro and decreased tumor growth in mice. […]
All immunotherapies, particularly when multi-drug combinations are involved, may have off-target effects. For example, drugs may have direct effects on the tumor, inhibiting tumor proliferation or inducing tumor apoptosis. Mice tumors were established by injecting RENCA cell subcutaneously in the flank of Balb/C mice (6-8 mice per group). 10 days later, mice were treated with PF twice per week. CD8 lymphocytes were depleted with αCD8 administered i.p. 2 days after injection of tumor cells. Mice in indicated groups received i.p. αPD1, twice a week, starting day 5 (FIG. 5A). Mice in indicated groups received i.p. temsirolimus every other day for 14 days, starting on days 10 (FIG. 5B). Tumor growth was monitored in these groups. […]

[1] = system: CD4+ and CD8+ lymphocytes; assay: Ex vivo restimulation of splenocytes/lymph nodes from treated tumor-bearing mice with CA9 peptide, flow cytometry; type: in vivo, Balb/C mice; settings: spleen and lymph nodes harvested on day 28, restimulated ex vivo with CA9 peptide
Procedure: FIGS. 4A-4D depict that PF enhanced the antitumor immunity provided by αPD1 or mTOR inhibition in mice. Mice tumors were established by injecting RENCA-CA9 cells subcutaneously in the flank (day 0) of Balb/C mice (6-8 mice per group). PF was administered i.p., twice a week, throughout the experiment, starting on day 10 (FIGS. 4A and 4C). αPD1 was administered i.p., twice a week, throughout the experiment, starting on days 5 (FIG. 4A). Splenocytes were harvested, and restimulated ex vivo with mouse CA9 peptide. The splenocytes were assessed by flow cytometry for Granzyme B, IFNγ or TNFα after gating on CD4 or CD8 (FIG. 4B). In a similar mouse tumor growth experiment, temsirolimus was administered i.p. on day 10, every other day, for 14 days (FIG. 4C). Similar to FIG. 4B, splenocytes were harvested, restimulated and analyzed (FIG. 4D). Representative results are shown for experiments conducted at least twice. […]
FIGS. 6A-6C depict that PF enhances immune activation and CD8+ memory lymphocyte formation. […] Spleen and lymph nodes were harvested on day 28 and restimulated ex vivo with CA9 peptide and assessed by flow cytometry (FIGS. 6B and 6C). CD8+ lymphocytes treated with PF had increased activation as measured by IFNγ or TNFα (FIG. 6B). […]
To assess T cells in mice, CD4+ FoxP3+ cells from serial peripheral blood draws were assessed by flow cytometry. […]

CSCC[C@H](NC(=O)[C@H](C)NC(=O)[C@H](Cc1ccccc1)NC(=O)[C@H](Cc1ccccc1)NC(=O)[C@@H]1CCCN1C(=O)[C@H](Cc1c[nH]c2ccccc12)NC(=O)[C@H](CCSC)NC(=O)[C@H](CCCCN)NC(=O)[C@H](CCCNC(=N)N)NC(=O)[C@H](Cc1ccccc1)NC(=O)[C@H](CO)NC(=O)[C@H](CCC(N)=O)NC(=O)[C@H](Cc1ccccc1)NC(=O)[C@H](CC(=O)O)NC(=O)[C@H](CCCNC(=N)N)NC(=O)CCOCCOCCOCCOCCNc1cccc2c1C(=O)N(C1CCC(=O)NC1=O)C2=O)C(=O)O (stereo partly drawn) [PF, Pomalidomide-PEG4-RDFQSFRKMWPFFAM] ({X1-PEG4}-RDFQSFRKMWPFFAM-OH)
tumor growth, single agent (RENCA tumors): produced a decrease in tumor growth
tumor growth, single agent (RENCA tumors; listed as P-FoxP3): appeared to decrease tumor growth compared to saline control
memory markers (CD62L, CD44 and Eomes) in CD8+ cells [1]: displayed a memory phenotype with increase in CD62L, CD44 and Eomes expression
